Results: article PMC7587601, “A Rose Extract Protects the Skin against Stress Mediators: A Potential Role of Olfactory Receptors” (Molecules, 2020)

Columns and labels:
Type in all cases: cell-based, human
Conditions in all cases: epinephrine 56 nM alone, 9 days
OR10A6 mRNA = OR10A6 mRNA expression in skin explants (RT-qPCR)
Experimental: (§1) For NHEKs, total RNA was isolated and purified using RNeasy Mini Kit (Qiagen, Hilden, Germany, #74104) following the manufacturer’s protocol. For RNA extraction from skin sections, Trizol (ThermoFisher, Waltham, MA, USA, #15596026) was used following the manufacturer’s protocol. Purity was determined with commercial Agilent kit RNA 6000 Nano Kit (Agilent, Santa Clara, CA, USA, #5067-1511) using Agilent 2100 Bioanalyzer according to the manufacturer’s recommendations and the concentration was quantified with a Nanodrop 2000c (ThermoFisher, Waltham, MA, USA). Real-time quantitative polymerase chain reaction (qRT-PCR) was run in triplicate using TaqMan™ Fast Advanced Master Mix (ThermoFisher, Waltham, MA, USA, #4444557) and gene Expression Assay transcripts (ThermoFisher, Waltham, MA, USA) on the AriaMx Real-time PCR System (Agilent, Santa Clara, CA, USA) according to the manufacturer’s recommendations. Real-time quantification plots and Ct values were collected and stored in AriaMx software (version 2.1). […]
(§2) Human skin explants were recovered from the abdominal tissue of a person and kept in a culture medium at 37 °C, under 5% CO2. […] Each condition was evaluated on 3 different explants and compared to control (untreated explant). […]
(§3) System (Agilent) according to the manufacturer’s recommendations. Real-time quantification plots and Ct values were collected and stored in AriaMx software. […]

G6PDH = assay: Epinephrine-induced stress model in skin explants, G6PDH immunostaining
Experimental: (§4) To study the potential involvement of ORs in skin response to chronic stress, an ex vivo epinephrine-induced stress model was designed. Three different markers, known to increase under stress conditions, were measured to estimate the stress response of skin (Figure 3A). G6PDH was used as a marker for cell metabolism, loricrin for cell differentiation, and γH2AX for DNA damage.
(§5) For immunohistochemical staining on human skin, 5-μm-thick sections were made. The same primary antibodies were used (anti-OR10A6 (1:200; Abcam, #ab129837), anti-OR11H4 (1:200; ThermoFisher, #PA5-562685), anti-OR2AG2 (1:100; ThermoFisher, #PA5-538166)). […] Image processing was performed using ImageJ 2.0 software. For primary G6PDH (1:100 dilution; Sigma Aldrich, St. Louis, MO, USA, #HPA000247), loricrine (1:1600 dilution; Covance, Princeton, NJ, USA, #PRB-145P), γH2AX (1:800; Abcam, Cambridge, UK, #ab26350) antibodies staining, tissue cryosections were […] and immunostaining was performed using an automated slide processing system (Autostainer Dako, Agilent, Santa Clara, CA, USA). […] Microscopical observations were realized using an Olympus BX43 microscope. Photographs were digitized with a numeric DP72 Olympus camera and CellD storing software (Waltham, MA, USA). The detailed protocols were described in the supplementary materials. […]

OR11H4 mRNA = OR11H4 mRNA expression in skin explants (RT-qPCR)
Experimental: as §1, §2, §3

γH2AX = assay: Epinephrine-induced stress model in skin explants, γH2AX immunostaining
Experimental: as §4, §5

OR11H4 protein = OR11H4 protein expression in skin explants (immunohistochemistry)
Experimental: (§6) For immunohistochemical staining on human skin, 5-μm-thick sections were made. The same primary antibodies were used (anti-OR10A6 (1:200; Abcam, #ab129837), anti-OR11H4 (1:200; ThermoFisher, #PA5-562685), anti-OR2AG2 (1:100; ThermoFisher, #PA5-538166)). […] Image processing was performed using ImageJ 2.0 software. […]
as §2
(§7) mounting medium (Santa Cruz, UltraCruz Mounting Medium # sc-24941). […] Cells were observed using a Zeiss microscope and images were analyzed with ImageJ 2.0 software. […]
(§8) observations were realized using an Olympus BX43 microscope. […] Quantification of the proteins of interest (stained purple) was performed through microscopic observation and image analysis. Results were expressed as a percentage of untreated control explants. The relative change (Δ%) between the two tested conditions was also calculated. […]
(§9) AlexaFluor 546 (ThermoFisher, #A11035) goat anti-rabbit IgG secondary antibody, diluted in 1:800 in PBS 1X with 1% BSA, for 1h at room temperature. […] The green channel was used to quantify the fluorescence resulting from OR labelling in the same region. […]

OR10A6 protein = OR10A6 protein expression in skin explants (immunohistochemistry)
Experimental: as §6, §2, §7, §8, §9

loricrin = assay: Epinephrine-induced stress model in skin explants, loricrin immunostaining
Experimental: as §4, §5

OR2AG2 mRNA = OR2AG2 mRNA expression in skin explants (RT-qPCR)
Experimental: as §1, §2, §3

OR2AG2 protein = OR2AG2 protein expression in skin explants (immunohistochemistry)
Experimental: as §6, §2, §7, §8, §9

CNC[C@H](O)c1ccc(O)c(O)c1 [epinephrine]
OR10A6 mRNA level, fold change (OR10A6 mRNA): 0.45 ± 0.2 | G6PDH expression, fold change (G6PDH): 1.26 ± 0.19 | OR11H4 mRNA level, fold change (OR11H4 mRNA): 0.52 ± 0.2 | γH2AX expression, fold change (γH2AX): 1.7 ± 0.47 | OR11H4 protein expression (OR11H4 protein): No change | OR10A6 protein expression, relative intensity staining (OR10A6 protein): 0.77 ± 0.34 | loricrin expression, fold change (loricrin): 2.3 ± 1.17 | OR2AG2 mRNA level, fold change (OR2AG2 mRNA): 0.51 ± 0.3 | OR2AG2 protein expression, relative intensity staining (OR2AG2 protein): 0.81 ± 0.15
